Measured values published in the supplement of paper PMC11451515.

System: NOMO1
Experiment: cell viability relative to DMSO control; higher = less cytotoxic
Conditions: 48 h
Method in brief: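 In 1536-well plates, 5 μl of leukemia cells were seeded per well: 500 cells/well for NOMO1 or SEM and 1000 cells/well for P12-Ichikawa. Each line had first been adapted for at least four passages in each medium. Library compounds in DMSO were pin-dosed at 11 threefold concentrations between 47 μM and 0.79 nM, and CellTiter-Glo One luminescence was read after 48 h at 37°C. Viability is a per-plate percentage relative to DMSO wells, with cell-free wells as background.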

[1] = HPLM + 10% dialyzed FBS, 0.000781 µM
[2] = HPLM + 10% dialyzed FBS, 0.00234 µM
[3] = HPLM + 10% dialyzed FBS, 0.00702 µM
[4] = HPLM + 10% dialyzed FBS, 0.0211 µM
[5] = HPLM + 10% dialyzed FBS, 0.0632 µM
[6] = HPLM + 10% dialyzed FBS, 0.19 µM
[7] = HPLM + 10% dialyzed FBS, 0.569 µM
[8] = HPLM + 10% dialyzed FBS, 1.71 µM
[9] = HPLM + 10% dialyzed FBS, 5.12 µM
[10] = HPLM + 10% dialyzed FBS, 15.4 µM
[11] = HPLM + 10% dialyzed FBS, 46.1 µM
[12] = RPMI 5 mM glucose + 10% FBS, 0.000781 µM
[13] = RPMI 5 mM glucose + 10% FBS, 0.00234 µM
[14] = RPMI 5 mM glucose + 10% FBS, 0.00702 µM
[15] = RPMI 5 mM glucose + 10% FBS, 0.0211 µM
[16] = RPMI 5 mM glucose + 10% FBS, 0.0632 µM
[17] = RPMI 5 mM glucose + 10% FBS, 0.19 µM
[18] = RPMI 5 mM glucose + 10% FBS, 0.569 µM
[19] = RPMI 5 mM glucose + 10% FBS, 1.71 µM
[20] = RPMI 5 mM glucose + 10% FBS, 5.12 µM
[21] = RPMI 5 mM glucose + 10% FBS, 15.4 µM
[22] = RPMI 5 mM glucose + 10% FBS, 46.1 µM
[23] = RPMI 5 mM glucose + 10% dialyzed FBS, 0.000781 µM
[24] = RPMI 5 mM glucose + 10% dialyzed FBS, 0.00234 µM
[25] = RPMI 5 mM glucose + 10% dialyzed FBS, 0.00702 µM
[26] = RPMI 5 mM glucose + 10% dialyzed FBS, 0.0211 µM
[27] = RPMI 5 mM glucose + 10% dialyzed FBS, 0.0632 µM
[28] = RPMI 5 mM glucose + 10% dialyzed FBS, 0.19 µM
[29] = RPMI 5 mM glucose + 10% dialyzed FBS, 0.569 µM
[30] = RPMI 5 mM glucose + 10% dialyzed FBS, 1.71 µM
[31] = RPMI 5 mM glucose + 10% dialyzed FBS, 5.12 µM
[32] = RPMI 5 mM glucose + 10% dialyzed FBS, 15.4 µM
[33] = RPMI 5 mM glucose + 10% dialyzed FBS, 46.1 µM

Compound | cell viability [1] | cell viability [2] | cell viability [3] | cell viability [4] | cell viability [5] | cell viability [6] | cell viability [7] | cell viability [8] | cell viability [9] | cell viability [10] | cell viability [11] | cell viability [12] | cell viability [13] | cell viability [14] | cell viability [15] | cell viability [16] | cell viability [17] | cell viability [18] | cell viability [19] | cell viability [20] | cell viability [21] | cell viability [22] | cell viability [23] | cell viability [24] | cell viability [25] | cell viability [26] | cell viability [27] | cell viability [28] | cell viability [29] | cell viability [30] | cell viability [31] | cell viability [32] | cell viability [33]
CCc1cc(C(N)=S)ccn1 | 110% | 117% | 112% | 130% | 118% | 131% | 133% | 119% | 142% | 134% | 118% | 118% | 125% | 127% | 119% | 126% | 132% | 119% | 131% | 130% | 141% | 139% | 126% | 116% | 102% | 126% | 137% | 121% | 137% | 123% | 123% | 145% | 133%
C[C@@H]1CCN(C(=O)CC#N)C[C@@H]1N(C)c1ncnc2[nH]ccc12 | 93.6% | 81.7% | 91.7% | 84.4% | 97.6% | 77.1% | 94.7% | 76.3% | 83.6% | 81.9% | 73.6% | 97.2% | 84.6% | 83.3% | 75.8% | 77.8% | 72% | 73.4% | 71.8% | 81.6% | 80.9% | 75.7% | 89% | 89.1% | 84.9% | 88.4% | 87.5% | 80.7% | 69.3% | 101% | 91.9% | 88.4% | 84.7%
COc1cc2ncn(-c3cc(OCc4ccccc4[S+](C)(=O)[O-])c(C#N)s3)c2cc1OC | 101% | 91% | 105% | 101% | 84% | 108% | 92.8% | 95.8% | 82.7% | 81.2% | 68.9% | 90.9% | 89.9% | 97% | 84.6% | 99.7% | 97% | 103% | 88.8% | 82.1% | 90.4% | 73.8% | 107% | 98.6% | 100% | 100% | 90.8% | 98.7% | 95.3% | 101% | 89.4% | 94.8% | 62%
OC1=CC=C(C=C1)\C2=C\OC3=C(C(=CC(=C3)O)O)C2=O | 110% | 112% | 117% | 120% | 116% | 122% | 124% | 113% | 107% | 137% | 117% | 108% | 111% | 107% | 117% | 104% | 115% | 108% | 109% | 112% | 123% | 110% | 94.7% | 113% | 99.8% | 110% | 118% | 117% | 107% | 108% | 118% | 115% | 103%
CC(NC(C)(C)C)C(=O)c1cccc(Cl)c1 (stereo not drawn) | – | – | – | – | – | – | – | – | – | – | – | 112% | 124% | 115% | 120% | 133% | 127% | 113% | 115% | 119% | 128% | 113% | – | – | – | – | – | – | – | – | – | – | –
Cc1nn(C)c(COc2ccc(N3CCN([S+](=O)([O-])N(C)C)CC3)cc2)c1-c1cccc2c(CCCOc3cccc4ccccc34)c(C(=O)O)n(CCN3CCOCC3)c12 | 96.9% | 107% | 121% | 122% | 124% | 108% | 137% | 101% | 25.9% | 36.8% | 32.1% | 100% | 110% | 105% | 110% | 112% | 105% | 118% | 111% | 25.2% | 108% | 22.8% | 90.6% | 112% | 110% | 116% | 122% | 111% | 117% | 107% | 109% | 119% | 91.8%
O=C([O-])C[C@H](O)C[C@H](O)/C=C/c1c(C2CC2)nc2ccccc2c1-c1ccc(F)cc1 | 101% | 104% | 130% | 120% | 125% | 116% | 112% | 132% | 109% | 87.7% | 12% | 108% | 116% | 122% | 114% | 111% | 112% | 116% | 134% | 109% | 97.8% | 23.7% | 114% | 109% | 110% | 122% | 116% | 119% | 129% | 115% | 101% | 86.4% | 22.9%
CCN1\C=C(\C(O)=O)C(=O)C2=C1N=C(N3CCNCC3)C(=C2)F | 74.8% | 73.4% | 85.3% | 93% | 88.6% | 82.2% | 86.2% | 84.3% | 46% | 42% | 20.3% | 78% | 83.9% | 93% | 83.8% | 81.1% | 85.1% | 79% | 86.4% | 81.4% | 79.1% | 16% | 55.2% | 91% | 81.6% | 82.5% | 79.2% | 74.1% | 82.6% | 82.5% | 81% | 76.3% | 20.1%
CC(C)=CCC/C(C)=C/CC/C(C)=C/CC/C(C)=C/CC/C(C)=C/CC/C(C)=C/CC/C(C)=C/CC/C(C)=C/CC/C(C)=C/CO | 117% | 123% | 105% | 92.7% | 107% | 114% | 112% | 117% | 100% | 96.6% | 102% | 95.7% | 96.3% | 108% | 100% | 101% | 105% | 115% | 104% | 92.6% | 92.8% | 88.3% | 92.2% | 91% | 111% | 93.6% | 103% | 113% | 94.4% | 95.6% | 91.6% | 87.7% | 86.9%
OC[C@H]1O[C@H](C[C@@H]1O)N2\C=C(F)/C(=O)NC2=O | 115% | 120% | 120% | 70.9% | 51.9% | 46.8% | 52.1% | 50.4% | 35.5% | 27.8% | 17.9% | 121% | 118% | 114% | 118% | 120% | 89.9% | 82.6% | 72.7% | 44.1% | 39.1% | 30.2% | 140% | 119% | 106% | 79.2% | 63.9% | 46.4% | 47% | 34.4% | 24.6% | 27.6% | 20.1%
Cc1ccc(C(=O)Nc2cccc(C(F)(F)F)c2)cc1-c1ccc2nc(NCCN3CCOCC3)ncc2c1 | 128% | 122% | 111% | 118% | 118% | 126% | 117% | 108% | 50.7% | 29.5% | 10.8% | 115% | 106% | 125% | 113% | 123% | 114% | 116% | 103% | 57.3% | 32.7% | 10.3% | 129% | 116% | 115% | 124% | 118% | 113% | 114% | 102% | 54.2% | 33.4% | 11.6%
CC1(CN2CCC(n3c(=O)[nH]c4ccccc43)CC2)OCc2ccccc2-n2cccc21 (stereo not drawn) | 128% | 108% | 102% | 105% | 96.8% | 105% | 104% | 108% | 102% | 59.3% | 75.6% | 86.7% | 103% | 95.4% | 91.4% | 104% | 107% | 91.3% | 96% | 92.5% | 87.8% | 84% | 105% | 111% | 103% | 93.2% | 96.7% | 98.2% | 95.9% | 92.4% | 90.9% | 79.5% | 68.5%
CCOC(=O)N1c2ccc(C(F)(F)F)cc2[C@@H](N(Cc2cc(C(F)(F)F)cc(C(F)(F)F)c2)C(=O)OC)C[C@H]1CC | 124% | 149% | 123% | 118% | 124% | 139% | 110% | 109% | 120% | 105% | 110% | 121% | 117% | 105% | 118% | 129% | 113% | 115% | 111% | 114% | 112% | 107% | 110% | 117% | 121% | 115% | 121% | 110% | 103% | 112% | 119% | 109% | 93.7%
N#Cc1ccc(Oc2ccc3c(c2)COB3O)cc1 | – | – | – | – | – | – | – | – | – | – | – | 122% | 132% | 119% | 120% | 150% | 137% | 144% | 126% | 133% | 129% | 57.3% | – | – | – | – | – | – | – | – | – | – | –
C[C@@H]1CN(Cc2ccc(F)cc2)[C@@H](C)CN1C(=O)c1cc2c(C(=O)C(=O)N(C)C)cn(C)c2cc1Cl | 103% | 121% | 118% | 119% | 129% | 139% | 139% | 128% | 131% | 123% | 74.8% | 103% | 122% | 118% | 120% | 123% | 124% | 124% | 108% | 114% | 115% | 118% | 125% | 117% | 115% | 118% | 128% | 127% | 124% | 132% | 119% | 127% | 111%
Cc1nc2cc(C(=O)N3CCC4(CC3)CC(=O)c3c(cnn3C(C)C)C4)ccc2[nH]1 | 96.7% | 159% | 125% | 124% | 116% | 135% | 134% | 119% | 112% | 135% | 60.9% | 118% | 133% | 116% | 130% | 129% | 124% | 123% | 128% | 135% | 132% | 94.2% | – | – | – | – | – | – | – | – | – | – | –
